Results from US12139487B2, “Compounds and uses thereof” (Foghorn Therapeutics Inc., priority 2022, dated 2024).

How the values were obtained:
[1] = target: T1, BRM (Homo sapiens, UniProt P51531); experiment: ATPase catalytic activity assay (ADP-Glo), BRM; assay type: biochemical; conditions: Table 10; for Ratio (BRG1 IC50 (μM) divided by BRM IC50 (μM)): ATPase assay, selectivity BRG1/BRM; for IC50: ATPase catalytic activity assay (ADP-Glo)
T1 construct: made in house; host or cells: High Five insect cells
Outline: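 ADP-Glo luminescence measures ADP produced by BRM ATPase (30 nM) during 1 h at room temperature. ATP is 400 μM, with 20 nM salmon sperm DNA as cofactor. Buffer: 20 mM Tris pH 8, 20 mM MgCl2, 50 mM NaCl, 0.1% Tween-20, 1 mM DTT.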

[2] = target: T2, BRG-1 (Homo sapiens, UniProt P51532); experiment: ATPase catalytic activity assay (ADP-Glo), BRG-1; assay type: biochemical; conditions: Table 10, read-out: BRG1 IC50
T2 construct: made in house; host or cells: High Five insect cells
Outline: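 Once the ATPase reaction finished, leftover ATP was depleted over 40 minutes at room temperature. Generated ADP was next turned back into ATP during a 60-minute room-temperature step. Luciferase-derived light was then measured.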

T1 sequence (P51531 whole entry): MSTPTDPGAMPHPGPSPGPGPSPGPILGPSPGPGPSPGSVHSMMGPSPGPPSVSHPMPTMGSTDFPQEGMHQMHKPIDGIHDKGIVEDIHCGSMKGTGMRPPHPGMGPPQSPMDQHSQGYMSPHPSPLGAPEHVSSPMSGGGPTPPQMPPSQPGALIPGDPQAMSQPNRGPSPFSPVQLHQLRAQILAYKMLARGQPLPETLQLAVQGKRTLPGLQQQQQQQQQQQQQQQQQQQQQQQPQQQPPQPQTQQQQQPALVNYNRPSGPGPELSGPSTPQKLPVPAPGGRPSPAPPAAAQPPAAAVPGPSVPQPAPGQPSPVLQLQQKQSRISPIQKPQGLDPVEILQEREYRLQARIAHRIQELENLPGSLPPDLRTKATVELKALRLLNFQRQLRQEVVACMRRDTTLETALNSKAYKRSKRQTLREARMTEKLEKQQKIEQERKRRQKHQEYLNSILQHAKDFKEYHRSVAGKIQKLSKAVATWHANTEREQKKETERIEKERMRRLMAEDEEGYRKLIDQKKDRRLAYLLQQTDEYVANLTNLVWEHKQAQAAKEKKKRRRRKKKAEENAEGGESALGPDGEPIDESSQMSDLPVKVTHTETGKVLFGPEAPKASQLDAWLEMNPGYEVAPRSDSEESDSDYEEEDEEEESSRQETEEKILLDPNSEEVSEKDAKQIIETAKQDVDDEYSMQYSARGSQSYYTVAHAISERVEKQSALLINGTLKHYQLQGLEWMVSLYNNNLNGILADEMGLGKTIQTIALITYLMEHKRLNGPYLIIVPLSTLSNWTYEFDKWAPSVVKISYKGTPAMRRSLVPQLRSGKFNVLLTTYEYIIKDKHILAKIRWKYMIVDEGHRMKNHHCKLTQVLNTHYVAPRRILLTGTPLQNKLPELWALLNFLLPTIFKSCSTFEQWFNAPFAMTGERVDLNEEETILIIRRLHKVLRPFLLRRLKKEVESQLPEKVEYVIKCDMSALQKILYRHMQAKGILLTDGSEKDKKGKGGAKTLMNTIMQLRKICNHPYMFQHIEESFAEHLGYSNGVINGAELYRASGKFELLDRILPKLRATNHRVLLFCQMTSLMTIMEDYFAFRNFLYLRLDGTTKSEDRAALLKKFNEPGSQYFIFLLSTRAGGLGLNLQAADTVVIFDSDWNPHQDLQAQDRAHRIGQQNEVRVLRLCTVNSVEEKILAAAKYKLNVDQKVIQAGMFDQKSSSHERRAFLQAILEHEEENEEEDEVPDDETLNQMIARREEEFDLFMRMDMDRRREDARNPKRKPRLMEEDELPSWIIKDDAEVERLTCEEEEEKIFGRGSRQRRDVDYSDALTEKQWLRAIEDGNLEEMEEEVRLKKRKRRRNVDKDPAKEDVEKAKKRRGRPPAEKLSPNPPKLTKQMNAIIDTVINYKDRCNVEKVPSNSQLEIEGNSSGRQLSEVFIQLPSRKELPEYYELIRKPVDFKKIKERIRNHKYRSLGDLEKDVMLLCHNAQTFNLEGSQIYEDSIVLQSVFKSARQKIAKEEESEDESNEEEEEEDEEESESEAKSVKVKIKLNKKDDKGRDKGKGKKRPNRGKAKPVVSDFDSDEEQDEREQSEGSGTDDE
T2 sequence (P51532 whole entry): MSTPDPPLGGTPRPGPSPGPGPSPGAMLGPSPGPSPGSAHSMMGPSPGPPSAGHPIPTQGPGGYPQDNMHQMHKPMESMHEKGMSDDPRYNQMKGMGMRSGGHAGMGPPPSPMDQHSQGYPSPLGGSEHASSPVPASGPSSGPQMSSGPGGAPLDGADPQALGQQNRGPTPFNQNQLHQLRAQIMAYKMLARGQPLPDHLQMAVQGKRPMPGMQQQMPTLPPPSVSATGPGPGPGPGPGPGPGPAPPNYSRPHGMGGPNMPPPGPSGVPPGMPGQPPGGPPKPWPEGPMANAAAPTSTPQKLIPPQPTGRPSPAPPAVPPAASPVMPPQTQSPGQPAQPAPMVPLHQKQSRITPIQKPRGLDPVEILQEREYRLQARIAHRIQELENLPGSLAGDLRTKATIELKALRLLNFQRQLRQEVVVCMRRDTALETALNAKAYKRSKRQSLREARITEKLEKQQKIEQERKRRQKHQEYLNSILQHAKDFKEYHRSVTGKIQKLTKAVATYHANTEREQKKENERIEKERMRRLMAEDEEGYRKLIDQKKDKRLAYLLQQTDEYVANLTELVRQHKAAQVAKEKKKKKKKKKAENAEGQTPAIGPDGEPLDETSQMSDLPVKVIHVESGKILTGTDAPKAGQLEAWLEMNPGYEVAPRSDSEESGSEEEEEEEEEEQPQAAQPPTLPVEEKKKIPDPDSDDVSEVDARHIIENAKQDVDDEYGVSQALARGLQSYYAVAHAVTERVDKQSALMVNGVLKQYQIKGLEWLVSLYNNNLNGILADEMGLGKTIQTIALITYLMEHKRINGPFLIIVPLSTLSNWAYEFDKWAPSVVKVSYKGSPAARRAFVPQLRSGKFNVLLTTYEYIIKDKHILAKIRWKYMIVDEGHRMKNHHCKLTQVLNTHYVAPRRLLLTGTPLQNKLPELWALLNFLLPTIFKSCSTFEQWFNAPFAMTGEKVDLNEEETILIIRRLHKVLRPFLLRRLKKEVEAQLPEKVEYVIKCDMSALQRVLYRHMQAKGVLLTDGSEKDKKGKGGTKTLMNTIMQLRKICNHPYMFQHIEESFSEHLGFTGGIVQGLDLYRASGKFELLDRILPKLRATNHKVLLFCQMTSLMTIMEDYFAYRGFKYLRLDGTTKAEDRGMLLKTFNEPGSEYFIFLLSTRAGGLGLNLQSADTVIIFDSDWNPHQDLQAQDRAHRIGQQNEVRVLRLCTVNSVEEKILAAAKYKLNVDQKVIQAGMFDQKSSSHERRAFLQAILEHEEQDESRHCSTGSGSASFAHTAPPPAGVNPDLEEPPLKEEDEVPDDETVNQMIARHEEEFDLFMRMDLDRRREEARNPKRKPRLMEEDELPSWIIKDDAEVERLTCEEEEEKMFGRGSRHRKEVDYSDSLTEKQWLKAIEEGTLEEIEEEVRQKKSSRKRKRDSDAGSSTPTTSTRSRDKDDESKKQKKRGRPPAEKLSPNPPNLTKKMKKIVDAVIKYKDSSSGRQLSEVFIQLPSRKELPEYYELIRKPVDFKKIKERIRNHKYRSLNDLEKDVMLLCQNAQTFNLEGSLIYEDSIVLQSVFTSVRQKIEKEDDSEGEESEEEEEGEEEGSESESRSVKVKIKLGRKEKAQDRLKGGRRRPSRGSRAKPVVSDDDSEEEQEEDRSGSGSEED

SMILES | Ratio (BRG1 IC50 (μM) divided by BRM IC50 (μM)) [1] | IC50 [1] [µM] | IC50 [2] [µM]
C[C@H](NC(=O)c1cc(F)c2c(c1)S(=O)(=O)[C@@H](F)CCO2)c1cc2nc(N3CCOc4cc(C5CC5)cnc43)ccc2cn1 [Compound 240] | 19.83 | 0.0076 | 0.185
CCn1ccc2c(-c3ccc4cnc(CNC(=O)c5cc(F)c6c(c5)S(=O)(=O)[C@@H](F)CCO6)cc4n3)ccnc21 [Compound 256] | 13.83 | 0.0081 | 0.112
C[C@H](NC(=O)c1cc(F)c2c(c1)S(=O)(=O)[C@@H](F)CCO2)c1cc2nc(N3CCOc4cc(N5CCC5)cnc43)ccc2cn1 [Compound 261] | 25.34 | 0.0085 | 0.242
O=C(NCc1cc2nc(N3CCOc4cc(N5CC(CF)C5)cnc43)ccc2cn1)c1cc(F)c2c(c1)S(=O)(=O)[C@@H](F)CCO2 [Compound 248] | 16.34 | 0.0078 | 0.128
COc1nc([C@](C)(F)C(F)F)ccc1-c1ccc2cnc(CNC(=O)c3ccc4c(c3)S(=O)(=O)[C@@H](F)CCOC4)cc2n1 [Compound 43] |  | 0.002 | 0.0406
COc1nc([C@@H](C)F)ccc1-c1ccc2cnc(CNC(=O)c3cc(F)c4c(c3)S(=O)(=O)[C@@H](F)CCO4)cc2n1 [Compound 259] | 27.15 | 0.0083 | 0.274
O=C(NCc1cc2nc(-c3cccc(N4CCC4)n3)ccc2cn1)c1cc(F)c2c(c1)S(=O)(=O)[C@@H](F)COC2 [Compound 111] | 19.81 | 0.0039 | 0.0791
O=C(NCc1cc2nc(N3CCOc4c(N5CC(F)C5)ccnc43)ccc2cn1)c1cc(F)c2c(c1)S(=O)(=O)[C@@H](F)CCO2 [Compound 285] | 9.97 | 0.0095 | 0.0946
C[C@@H]1CN(c2cccc(-c3ccc4cnc(CNC(=O)c5cc(Cl)c6c(c5)S(=O)(=O)[C@@H](F)CCO6)cc4n3)n2)C[C@H](C)O1 [Compound 148, (R)-9-chloro-N-((2-(6-((2S,6R)-2,6-dimethylmorpholino)pyridin-2-yl)-1,6-naphthyridin-7-yl)methyl)-4-fluoro-3,4-dihydro-2H-benzo[b][1,4]oxathiepine-7-carboxamide 5,5-dioxide] | 17.59 | 0.0049 | 0.0826
COCCOc1cnc2c(c1)CCCN2c1ccc2cnc(CNC(=O)c3cc(F)c4c(c3)S(=O)(=O)[C@@H](F)CCO4)cc2n1 [Compound 271] | 29.78 | 0.0089 | 0.294
COc1nc(C(F)F)ccc1-c1ccc2cnc(CNC(=O)c3ccc4c(c3)S(=O)(=O)[C@@H](F)CO[C@H]4C)cc2n1 [Compound 197] | 14.25 | 0.006 | 0.0846
COc1cc(F)ccc1-c1ccc2cnc(CNC(=O)c3cc(F)c4c(c3)S(=O)(=O)[C@@H](F)CCO4)cc2n1 [Compound 266] | 18.84 | 0.0087 | 0.153
O=C(NCc1cc2nc(N3CCOc4ccc([C@H]5C[C@@H]5C(F)F)nc43)ccc2cn1)c1cc(F)c2c(c1)S(=O)(=O)[C@@H](F)CCO2 [Compound 125] | 19.09 | 0.0043 | 0.0815
COc1nc(C(F)F)ccc1-c1ccc2cnc(CNC(=O)c3cc(F)c4c(c3)S(=O)(=O)[C@@H](F)COC4)cc2n1 [Compound 53] | 19.48 | 0.0025 | 0.0543
O=C(NCc1cc2nc(-c3cccc(C4CC4)n3)ccc2cn1)c1cc(F)c2c(c1)S(=O)(=O)[C@@H](F)CCOC2 [Compound 327] |  | 0.0035 | 0.0407
CCO[C@@H]1CCN(c2cccc(-c3ccc4cnc(CNC(=O)c5cc(F)c6c(c5)S(=O)(=O)[C@@H](F)COC6)cc4n3)n2)C1 [Compound 12] | 11.63 | 0.0014 | 0.0162
CO[C@H](C)COc1ccc2c(c1)N(c1ccc3cnc(CNC(=O)c4cc(F)c5c(c4)S(=O)(=O)[C@@H](F)CCO5)cc3n1)CCO2 [Compound 24] | 18.65 | 0.0017 | 0.0311
O=C(NCc1cc2nc(N3CCOc4cc(N5CC[C@H](F)[C@@H](F)C5)cnc43)ccc2cn1)c1cc(F)c2c(c1)S(=O)(=O)[C@@H](F)CCO2 [Compound 109] | 17.52 | 0.0039 | 0.0872
O=C(NCc1cc2nc(N3CCOc4ccc([C@H](F)CF)nc43)ccc2cn1)c1cc(F)c2c(c1)S(=O)(=O)[C@@H](F)COC2 [Compound 62] | 28.84 | 0.0026 | 0.0797

SMILES | Ratio (BRG1 IC50 (μM) divided by BRM IC50 (μM)) [1] | IC50 [1] [µM] | IC50 [2] [µM]
O=C(NCc1cc2nc(N3CCCc4sc(C5CC5)nc43)ccc2cn1)c1cc(F)c2c(c1)S(=O)(=O)[C@@H](F)CCO2 [Compound 178] | 34.29 | 0.0056 | 0.207
C[C@@H]1CN(c2cccc(-c3ccc4cnc(CNC(=O)c5ccc6c(c5)S(=O)(=O)[C@@H](F)CN(C)C6)cc4n3)n2)C[C@H](C)O1 [Compound 1, (R)—N-((2-(6-((2S,6R)-2,6-dimethylmorpholino)pyridin-2-yl)-1,6-naphthyridin-7-yl)methyl)-2-fluoro-4-methyl-2,3,4,5-tetrahydrobenzo[f][1,4]thiazepine-8-carboxamide 1,1-dioxide] | 7.29 | 0.0029 | 0.0214
O=C(NCc1cc2nc(N3CCOc4ccc([C@H]5C[C@@H]5F)nc43)ccc2cn1)c1cc(F)c2c(c1)S(=O)(=O)[C@@H](F)COC2 [Compound 132] | 17.90 | 0.0045 | 0.0772
COc1nc(-c2ccc3cnc(CNC(=O)c4cc(Cl)c5c(c4)S(=O)(=O)[C@@H](F)COC5)cc3n2)ccc1C(F)F [Compound 301] | 18.66 | 0.01 | 0.175
COc1nc([C@H](C)F)ccc1-c1ccc2cnc(CNC(=O)c3cc(Cl)c4c(c3)S(=O)(=O)[C@@H](F)COC4)cc2n1 [Compound 174] | 28.19 | 0.0056 | 0.158
Cc1cc(C(=O)NCc2cc3nc(-c4cccc(N5C[C@@H](C)O[C@@H](C)C5)n4)ccc3cn2)cc2c1OCC[C@H](F)S2(=O)=O [Compound 100] | 13.01 | 0.0035 | 0.0448
O=C(NCc1cc2nc(N3CCOc4cc(CC(F)F)cnc43)ccc2cn1)c1cc(F)c2c(c1)S(=O)(=O)[C@@H](F)CCO2 [Compound 145] | 16.05 | 0.0048 | 0.0772
COc1nc(-c2ccc3cnc(CNC(=O)c4cc(F)c5c(c4)S(=O)(=O)[C@@H](F)CCO5)cc3n2)ccc1[C@H](F)CF [Compound 227] | 9.91 | 0.0071 | 0.0705
O=C(NCc1cc2nc(-c3cccc(C4CC4)n3)ccc2cn1)c1cc(F)c2c(c1)S(=O)(=O)[C@@H](F)COC2 [Compound 114] | 29.13 | 0.004 | 0.118
C[C@H]1C[C@H]1c1cnc2c(c1)OCCN2c1ccc2cnc(CNC(=O)c3cc(F)c4c(c3)S(=O)(=O)[C@@H](F)CCO4)cc2n1 [Compound 300] | 11.89 | 0.0099 | 0.118
COc1cc2c(nc1C(F)F)N(c1ccc3cnc(CNC(=O)c4cc(F)c5c(c4)S(=O)(=O)[C@@H](F)CCO5)cc3n1)CCO2 [Compound 81] | 14.31 | 0.003 | 0.0467
O=C(NCc1cc2nc(N3CCOc4cc(N5CC[C@@H](F)C5)cnc43)ccc2cn1)c1cc(F)c2c(c1)S(=O)(=O)[C@@H](F)CCO2 [Compound 182] | 16.19 | 0.0057 | 0.0839
O=C(NCc1cc2cc(-c3cncc(C4CC4)n3)ccc2cn1)c1cc(F)c2c(c1)S(=O)(=O)[C@@H](F)CCO2 [Compound 230] | 18.99 | 0.0072 | 0.153
CC(F)(F)c1cnc2c(c1)OCCN2c1ccc2cnc(CNC(=O)c3cc(F)c4c(c3)S(=O)(=O)[C@@H](F)CCO4)cc2n1 [Compound 176] | 17.02 | 0.0056 | 0.123
O=C(NCc1cc2nc(-c3cncc(C4CC4)n3)ccc2cn1)c1cc(F)c2c(c1)S(=O)(=O)[C@@H](F)COC2 [Compound 238] | 17.11 | 0.0076 | 0.132
CC1CN(c2ccnc3c2OCCN3c2ccc3cnc(CNC(=O)c4cc(F)c5c(c4)S(=O)(=O)[C@@H](F)CCO5)cc3n2)C1 [Compound 263] | 10.51 | 0.0085 | 0.0897
Cn1ccc2c(-c3ccc4cnc(CNC(=O)c5cc(F)c6c(c5)S(=O)(=O)[C@@H](F)CCO6)cc4n3)cccc21 [Compound 191] | 10.64 | 0.0058 | 0.0621
COCCN(C)c1cnc2c(c1)CCCN2c1ccc2cnc(CNC(=O)c3cc(F)c4c(c3)S(=O)(=O)[C@@H](F)CCO4)cc2n1 [Compound 149] | 13.78 | 0.0049 | 0.0677
O=C(NCc1cc2nc(N3CCOc4cc([C@@H]5CC5(F)F)cnc43)ccc2cn1)c1cc(F)c2c(c1)S(=O)(=O)[C@@H](F)CCO2 [Compound 87] | 20.66 | 0.0032 | 0.0783
